The source of these data is article PMC9673804, “Design, synthesis and antitumor evaluation of novel pyrazolo[3,4-d]pyrimidines incorporating different amino acid conjugates as potential DHFR inhibitors” (Journal of Enzyme Inhibition and Medicinal Chemistry, 2022).

Assay [1] relates to cervical carcinoma (HeLa). Description: SRB cytotoxicity assay, HeLa. Particulars: Homo sapiens, HeLa cells. It counts as cell-based.
The test system of assay [2] is human prostate cancer (PC-3). Put plainly: SRB cytotoxicity assay, PC-3. It counts as cell-based. Particulars: PC-3 cells. The procedure: (§1) The SRB colorimetric assay was employed to assess the synthesized compounds’ cytotoxic effects on several cancer cell lines (Table 1)[11–14]. […] Furthermore, the effect of tested compounds was evaluated on the normal immortalized HPDE cell line.
(§2) Sulforhodamine B (SRB) assay was employed to assay in-vitro antitumor activities of all the synthesised compounds as describer previously. […] The cell lines were obtained from the American Type Culture Collection (Rockville, USA).

The subject of assay [3] is colorectal carcinoma (HCT-116). Description: SRB cytotoxicity assay, HCT-116. The conditions noted are these: Homo sapiens, HCT-116 cells. It is filed as cell-based. On the procedure:
as §1, §2

The test system of assay [4] is pancreatic human cancer cell lines (BxPC-3). Put plainly: SRB cytotoxicity assay, BxPC-3. It counts as cell-based. Particulars: BxPC-3 cells. The procedure: as §1, §2
The subject of assay [5] is human hepatocellular carcinoma (HepG-2). Put plainly: SRB cytotoxicity assay, HepG-2. It counts as cell-based. The conditions noted are these: HepG2, HepG-2 cells. The procedure: as §1, §2
In assay [6] the test system is mammary gland breast cancer (MCF-7). Put plainly: SRB cytotoxicity assay, MCF-7. It counts as cell-based. Particulars: Homo sapiens, MCF7, MCF-7 cells. On the procedure: as §1, §2
For assay [7], the system named is normal immortalised pancreatic cell line (HPDE). Description: SRB cytotoxicity assay, normal HPDE cells. It counts as cell-based. The conditions noted are these: normal immortalized HPDE cell line. The procedure:
as §1, §2

Assay [8] concerns MCF-7 breast cancer cell line. Put plainly: Flow cytometric cell cycle analysis. It counts as cell-based, human. An excerpt:
Clearly, compound 7f enhanced the accumulation proportion of cells at the pre-G1 phase from 2.19 to 41.36%, and the accumulation percentages in S phase from 31.87 to 46.36%. […] Figure 8).

In assay [9] the test system is MCF-7 breast cancer cell line. Description: Annexin-V-FITC/PI cell apoptosis assay. It counts as cell-based, human. The conditions noted are these: MCF-7, Annexin V-FITC/PI, 24 h. On the procedure:
Cell cycle analysis was done for the compound 7f against MCF-7 breast cancer cell line[11]^,[14]. Clearly, compound 7f enhanced the accumulation proportion of cells at the pre-G1 phase from 2.19 to 41.36%, and the accumulation percentages in S phase from 31.87 to 46.36%.
Flow cytometric analysis using Annexin-V-fluoresce in isothiocyanate (FITC) and propidium iodide (PI) staining kit (BD Pharmingen, San Diego, USA) was performed to assess the apoptosis. At 70% confluence, the cells were treated with compound 7f at different concentrations of (0–8 μmol/l) for 24 h. Then after trypsinization of cells, washing with PBS and centrifugation, the cells were mixed with FITC and PI in binding buffer. Becton Dickinson (Franklin Lakes, NJ, USA) was used to do the flow cytometry analysis[16]^,[17].

The subject of the next assay is caspase 3/7. Description: Caspase-Glo 3/7 assay in MCF-7. It counts as cell-based, human. Particulars: ½ IC50, IC50, 2×IC50, dose dependent. On the procedure:
(§3) The apoptotic effect of compound 7f on breast cancer cell line MCF-7 were evaluated by quantification of Bax, caspase 3/7, and Bcl-2 using Bax ELISA Kit ab199080 (ABCAM, Cambridge, UK), Caspase-Glo 3/7 assay kits (Promega, Fitchburg, MA, USA), and Bcl-2 ELISA Kit ab119506 (ABCAM, Cambridge, UK), according the instructions of manufacturers[11]^,[14]. The cells were treated with compounds 7f (½ IC50, IC50, or 2 ×IC50), and the activities were shown as a percentage change from the untreated control. The experiments were performed in triplicate applying two-way ANOVA test followed by Bonferroni posttest to evaluate the significance (p < 0.05).

For the next assay, the system named is Bcl-2. Put plainly: Bcl-2 ELISA in MCF-7. It counts as cell-based, human. The conditions noted are these: dose-dependent. On the procedure:
as §3

Entries after “also recorded” stand apart in the source; their conditions may differ.

As for `N=C(N)NCCCC(NC(=O)c1ccc(Nc2ncnc3c2cnn3-c2ccccc2)cc1)C(=O)O` (centres unmarked) [Compound 7f, 5-Guanidino-2-{4-[(1-phenyl-1H-pyrazolo[3,4-d]pyrimidin-4-yl)amino]benzamido}pentanoic acid], the IC50 stood at 6.99 ± 1.11 µM in [1]; 6.29 ± 0.56 µM in assay [2]; 5.48 ± 0.04 µM in assay [3]; 7.09 ± 0.09 µM in assay [4]; 5.12 ± 0.01 µM in assay [5]; 4.65 ± 0.17 µM in [6]. Besides, in assay [7], the IC50 is > 50 µM. Besides, the “Comment (cell cycle arrest)” value in [8] (MCF-7 cells) is reported as “arrested cell cycle at S phase; also recorded: Cell growth arrest at S”. Besides, the “%Pre-G1” value in assay [8] (MCF-7 cells treated with the compound, control 2.19) was 41.36%. In addition, the “%G2/M” value in assay [8] (MCF-7 cells treated with the compound, control 12.01) is on record as 1.5%. Further, the “%S” value in assay [8] (MCF-7 cells treated with the compound, control 31.87) was 46.39%. Besides, the “%G0-G1” value in assay [8] (MCF-7 cells treated with the compound, control 56.12) worked out at 52.11%. Further, the “Apoptosis Late” value in assay [9] (control 0.13) stood at 21.31%. For the same molecule, in assay [9] (control 0.66), the “Apoptosis Early” value is given as 14.12%. This molecule also displayed a Necrosis in assay [9] (control 1.4) of 5.93%. Further, in the assay on caspase 3/7, the “release of caspase 3/7” value is “significantly surge the release”. Further, the “Bcl-2 production (ELISA)” value with Bcl-2 is “significantly reduced the Bcl-2 production”.
